# Measurements published in patent US20150344540A1, “NOVEL GLP-1 RECEPTOR AGONISTS WITH CHOLESTEROL EFFLUX ACTIVITY” (NOVO NORDISK A/S, priority 2012, published 2015).
# Where a SMILES comes first, the peptide text is derived from it. [ ]: non-standard residue; d: D form. Aib = CC(C)(N)C(=O)O
# Tested on: Mouse monocyte/macrophage cell line, RAW 264.7
# Experiment: Cholesterol efflux assay (3H-cholesterol, macrophage cell line)
# Format: cell-based
# Conditions: RAW 264.7, 4 hrs incubation, 0.1% human serum albumin, ABCA1-mediated efflux
row,Molecule,4 h Cholesterol Efflux Emax [%]
1,"CC[C@H](C)[C@H](NC(=O)[C@H](Cc1ccccc1)NC(=O)[C@H](CCC(=O)O)NC(=O)[C@H](CCCNC(=N)N)NC(=O)[C@H](C)NC(=O)[C@H](CCCNC(=N)N)NC(=O)[C@H](CCCCN)NC(=O)CNC(=O)[C@H](CCC(=O)O)NC(=O)[C@H](CC(C)C)NC(=O)[C@H](Cc1ccc(O)cc1)NC(=O)[C@H](CO)NC(=O)[C@H](CO)NC(=O)[C@@H](NC(=O)[C@H](CC(=O)O)NC(=O)[C@H](CO)NC(=O)[C@@H](NC(=O)[C@H](Cc1ccccc1)NC(=O)[C@@H](NC(=O)CNC(=O)[C@H](CCC(=O)O)NC(=O)C(C)(C)NC(=O)[C@@H](N)Cc1c[nH]cn1)[C@@H](C)O)[C@@H](C)O)C(C)C)C(=O)N[C@@H](C)C(=O)N[C@@H](Cc1c[nH]c2ccccc12)C(=O)N[C@@H](CC(C)C)C(=O)N[C@H](C(=O)N[C@@H](CCC(=O)O)C(=O)N[C@@H](CCCCN)C(=O)NC(C)(C)C(=O)N[C@@H](CCCCN)C(=O)N[C@@H](CCC(=O)O)C(=O)N[C@@H](Cc1ccccc1)C(=O)N[C@@H](CC(C)C)C(N)=O)C(C)C [Compound 52, [Aib8,Lys23,Arq24,Arq26,Glu34,Lys35,Aib36,Lys37]-GLP-1-(7-37)-peptidyl-Glu-Phe-Leu amide] (H-H[Aib]EGTFTSDVSSYLEGKRAREFIAWLVEK[Aib]KEFL-NH2)",98
2,"H-HGEGTFTSDVSSYLEGEAVKEFIAWLVEKVKEFLG-OH [Compound 92, [Gly8,Glu23,Val25,Glu34,Lys35,Val36,Lys37]-GLP-1-(7-37)-peptidyl-Glu-Phe-Leu-Gly]",129
3,"CC[C@H](C)[C@H](NC(=O)[C@H](Cc1ccccc1)NC(=O)[C@H](CCC(=O)O)NC(=O)[C@H](CCCCN)NC(=O)[C@@H](NC(=O)C(C)(C)NC(=O)[C@H](CCC(=O)O)NC(=O)CNC(=O)[C@H](CCC(=O)O)NC(=O)[C@H](CC(C)C)NC(=O)[C@H](Cc1ccc(O)cc1)NC(=O)[C@H](CO)NC(=O)[C@H](CO)NC(=O)[C@@H](NC(=O)[C@H](CC(=O)O)NC(=O)[C@H](CO)NC(=O)[C@@H](NC(=O)[C@H](Cc1ccccc1)NC(=O)[C@@H](NC(=O)CNC(=O)[C@H](CCC(=O)O)NC(=O)C(C)(C)NC(=O)[C@@H](N)Cc1c[nH]cn1)[C@@H](C)O)[C@@H](C)O)C(C)C)C(C)C)C(=O)NC(C)(C)C(=O)N[C@@H](Cc1c[nH]c2ccccc12)C(=O)N[C@@H](CC(C)C)C(=O)N[C@H](C(=O)N[C@@H](CCC(=O)O)C(=O)N[C@@H](CCCCN)C(=O)NC(C)(C)C(=O)N[C@@H](CCCCN)C(=O)N[C@@H](CCC(=O)O)C(=O)N[C@@H](Cc1ccccc1)C(=O)N[C@@H](CC(C)C)C(N)=O)C(C)C [Compound 3, [Aib8,Glu23,Aib24,Val25,Aib30,Glu34,Lys35,Aib36,Lys37]-GLP-1-(7-37)-peptidyl-Glu-Phe-Leu amide] (H-H[Aib]EGTFTSDVSSYLEGE[Aib]VKEFI[Aib]WLVEK[Aib]KEFL-NH2)",82
4,"CC[C@H](C)[C@H](NC(=O)[C@H](Cc1ccccc1)NC(=O)[C@H](CCC(=O)O)NC(=O)[C@H](CCCCN)NC(=O)[C@@H](NC(=O)[C@H](C)NC(=O)[C@H](CCC(=O)O)NC(=O)CNC(=O)[C@H](CCC(=O)O)NC(=O)[C@H](CC(C)C)NC(=O)[C@H](Cc1ccc(O)cc1)NC(=O)[C@H](CO)NC(=O)[C@H](CO)NC(=O)[C@@H](NC(=O)[C@H](CC(=O)O)NC(=O)[C@H](CO)NC(=O)[C@@H](NC(=O)[C@H](Cc1ccccc1)NC(=O)[C@@H](NC(=O)CNC(=O)[C@H](CCC(=O)O)NC(=O)C(C)(C)NC(=O)[C@@H](N)Cc1c[nH]cn1)[C@@H](C)O)[C@@H](C)O)C(C)C)C(C)C)C(=O)N[C@@H](C)C(=O)N[C@@H](Cc1c[nH]c2ccccc12)C(=O)N[C@@H](CC(C)C)C(=O)N[C@@H](CC(C)C)C(=O)N[C@@H](CCC(=O)O)C(=O)N[C@@H](CCCCN)C(=O)NC(C)(C)C(=O)N[C@@H](CCCCN)C(=O)N[C@@H](CCC(=O)O)C(=O)N[C@@H](Cc1c[nH]c2ccccc12)C(=O)N[C@@H](CC(C)C)C(N)=O [Compound 89, [Aib8,Glu23,Val25,Leu33,Glu34,Lys35,Aib36,Lys37]-GLP-1-(7-37)-peptidyl-Glu-Trp-Leu amide] (H-H[Aib]EGTFTSDVSSYLEGEAVKEFIAWLLEK[Aib]KEWL-NH2)",102
5,"CC[C@H](C)[C@H](NC(=O)[C@H](Cc1ccccc1)NC(=O)[C@H](CCC(=O)O)NC(=O)[C@H](CCCCN)NC(=O)[C@H](C)NC(=O)[C@H](C)NC(=O)[C@H](CCC(N)=O)NC(=O)CNC(=O)[C@H](CCC(=O)O)NC(=O)[C@H](CC(C)C)NC(=O)[C@H](Cc1ccc(O)cc1)NC(=O)[C@H](CO)NC(=O)[C@H](CO)NC(=O)[C@@H](NC(=O)[C@H](CC(=O)O)NC(=O)[C@H](CO)NC(=O)[C@@H](NC(=O)[C@H](Cc1ccccc1)NC(=O)[C@@H](NC(=O)CNC(=O)[C@H](CCC(=O)O)NC(=O)C(C)(C)NC(=O)[C@@H](N)Cc1c[nH]cn1)[C@@H](C)O)[C@@H](C)O)C(C)C)C(=O)N[C@@H](C)C(=O)N[C@@H](Cc1c[nH]c2ccccc12)C(=O)N[C@@H](CC(C)C)C(=O)N[C@H](C(=O)N[C@@H](CCCCN)C(=O)N[C@@H](CCCCN)C(=O)NC(C)(C)C(=O)N[C@@H](CCCCN)C(=O)N[C@@H](CCC(=O)O)C(=O)N[C@@H](Cc1ccccc1)C(=O)N[C@@H](CC(C)C)C(N)=O)C(C)C [Compound 47, [Aib8,Lys35,Aib36,Lys37]-GLP-1-(7-37)-peptidyl-Glu-Phe-Leu amide]",55
6,"CC[C@H](C)[C@H](NC(=O)[C@H](Cc1ccccc1)NC(=O)[C@H](CCC(N)=O)NC(=O)[C@H](CCCCN)NC(=O)[C@@H](NC(=O)[C@H](C)NC(=O)[C@H](CCC(N)=O)NC(=O)CNC(=O)[C@H](CCC(=O)O)NC(=O)[C@H](CC(C)C)NC(=O)[C@H](Cc1ccc(O)cc1)NC(=O)[C@H](CO)NC(=O)[C@H](CO)NC(=O)[C@@H](NC(=O)[C@H](CC(=O)O)NC(=O)[C@H](CO)NC(=O)[C@@H](NC(=O)[C@H](Cc1ccccc1)NC(=O)[C@@H](NC(=O)CNC(=O)[C@H](CCC(=O)O)NC(=O)C(C)(C)NC(=O)[C@@H](N)Cc1c[nH]cn1)[C@@H](C)O)[C@@H](C)O)C(C)C)C(C)C)C(=O)N[C@@H](C)C(=O)N[C@@H](Cc1c[nH]c2ccccc12)C(=O)N[C@@H](CC(C)C)C(=O)N[C@H](C(=O)N[C@@H](CCC(N)=O)C(=O)N[C@@H](CCCCN)C(=O)NC(C)(C)C(=O)N[C@@H](CCCCN)C(=O)N[C@@H](CCC(N)=O)C(=O)N[C@@H](Cc1ccccc1)C(=O)N[C@@H](CC(C)C)C(N)=O)C(C)C [Compound 102, [Aib8,Val25,Gln27,Gln34,Lys35,Aib36,Lys37]-GLP-1-(7-37)-peptidyl-Gln-Phe-Leu amide] (H-H[Aib]EGTFTSDVSSYLEGQAVKQFIAWLVQK[Aib]KQFL-NH2)",100
7,"CC[C@H](C)[C@H](NC(=O)[C@H](Cc1ccccc1)NC(=O)[C@H](CCC(=O)O)NC(=O)[C@H](CCCNC(=N)N)NC(=O)[C@@H](NC(=O)[C@H](C)NC(=O)[C@H](CCC(=O)O)NC(=O)[C@H](CCC(=O)O)NC(=O)[C@H](CCC(=O)O)NC(=O)[C@H](CCSC)NC(=O)[C@H](CCC(N)=O)NC(=O)[C@H](CCCCN)NC(=O)[C@H](CO)NC(=O)[C@H](CC(C)C)NC(=O)[C@H](CC(=O)O)NC(=O)[C@H](CO)NC(=O)[C@@H](NC(=O)[C@H](Cc1ccccc1)NC(=O)[C@@H](NC(=O)CNC(=O)[C@H](CCC(=O)O)NC(=O)C(C)(C)NC(=O)[C@@H](N)Cc1c[nH]cn1)[C@@H](C)O)[C@@H](C)O)C(C)C)C(=O)N[C@@H](CCC(=O)O)C(=O)N[C@@H](Cc1c[nH]c2ccccc12)C(=O)N[C@@H](CC(C)C)C(=O)N[C@@H](CCCCN)C(=O)N[C@@H](CC(N)=O)C(=O)N[C@@H](CCCCN)C(=O)NC(C)(C)C(=O)N[C@@H](CC(C)C)C(=O)N[C@@H](CCC(=O)O)C(=O)N[C@@H](Cc1ccccc1)C(=O)N[C@@H](CC(C)C)C(=O)N[C@@H](CCC(=O)O)C(=O)N[C@@H](CC(C)C)C(=O)N[C@@H](CC(C)C)C(=O)O [Compound 23, [Aib2,Glu21,Lys29,Aib30,Leu31,Glu32,Phe33,Leu34,Glu35,Leu36,Leu371-Exendin-4-(1-37)-peptide]",99
8,"CC[C@H](C)[C@H](NC(=O)[C@H](Cc1ccccc1)NC(=O)[C@H](CCC(=O)O)NC(=O)[C@H](CCCNC(=N)N)NC(=O)[C@@H](NC(=O)[C@H](C)NC(=O)[C@H](CCC(=O)O)NC(=O)[C@H](CCC(=O)O)NC(=O)[C@H](CCC(=O)O)NC(=O)[C@H](CCSC)NC(=O)[C@H](CCC(N)=O)NC(=O)[C@H](CCCCN)NC(=O)[C@H](CO)NC(=O)[C@H](CC(C)C)NC(=O)[C@H](CC(=O)O)NC(=O)[C@H](CO)NC(=O)[C@@H](NC(=O)[C@H](Cc1ccccc1)NC(=O)[C@@H](NC(=O)CNC(=O)[C@H](CCC(=O)O)NC(=O)C(C)(C)NC(=O)[C@@H](N)Cc1c[nH]cn1)[C@@H](C)O)[C@@H](C)O)C(C)C)C(=O)N[C@@H](CCC(=O)O)C(=O)N[C@@H](Cc1c[nH]c2ccccc12)C(=O)N[C@@H](CC(C)C)C(=O)N[C@@H](CCCCN)C(=O)N[C@@H](CC(N)=O)C(=O)N[C@@H](CCCCN)C(=O)NC(C)(C)C(=O)N[C@@H](CC(C)C)C(=O)N[C@@H](CCC(=O)O)C(=O)N[C@@H](Cc1ccccc1)C(=O)N[C@@H](CC(C)C)C(=O)N[C@@H](CCC(=O)O)C(=O)N[C@@H](CC(C)C)C(=O)N[C@@H](CC(C)C)C(N)=O [Compound 29, [Aib2,Glu21,Lys29,Aib30,Leu31,Glu32,Phe33,Leu34,Glu35,Leu36,Leu371-Exendin-4-(1-37)-peptide amide]",81

# Same assay, conditions: read-out: 4 h Cholesterol Efflux EC50; RAW 264.7, 4 hrs incubation, 0.1% human serum albumin, ABCA1-mediated efflux (CPT-cAMP induced minus non-induced)
row,Molecule,EC50 [nM]
1,"CC[C@H](C)[C@H](NC(=O)[C@H](Cc1ccccc1)NC(=O)[C@H](CCC(=O)O)NC(=O)[C@H](CCCNC(=N)N)NC(=O)[C@@H](NC(=O)[C@H](C)NC(=O)[C@H](CCC(=O)O)NC(=O)[C@H](CCC(=O)O)NC(=O)[C@H](CCC(=O)O)NC(=O)[C@H](CCSC)NC(=O)[C@H](CCC(N)=O)NC(=O)[C@H](CCCCN)NC(=O)[C@H](CO)NC(=O)[C@H](CC(C)C)NC(=O)[C@H](CC(=O)O)NC(=O)[C@H](CO)NC(=O)[C@@H](NC(=O)[C@H](Cc1ccccc1)NC(=O)[C@@H](NC(=O)CNC(=O)[C@H](CCC(=O)O)NC(=O)C(C)(C)NC(=O)[C@@H](N)Cc1c[nH]cn1)[C@@H](C)O)[C@@H](C)O)C(C)C)C(=O)N[C@@H](CCC(=O)O)C(=O)N[C@@H](Cc1c[nH]c2ccccc12)C(=O)N[C@@H](CC(C)C)C(=O)N[C@@H](CCCCN)C(=O)N[C@@H](CC(N)=O)C(=O)N[C@@H](CCCCN)C(=O)NC(C)(C)C(=O)N[C@@H](CC(C)C)C(=O)N[C@@H](CCC(=O)O)C(=O)N[C@@H](Cc1ccccc1)C(=O)N[C@@H](CC(C)C)C(=O)N[C@@H](CCC(=O)O)C(=O)N[C@@H](CC(C)C)C(=O)N[C@@H](CC(C)C)C(=O)O [Compound 23, [Aib2,Glu21,Lys29,Aib30,Leu31,Glu32,Phe33,Leu34,Glu35,Leu36,Leu371-Exendin-4-(1-37)-peptide]",730
